# Experimental data taken from PMC6651341, “EDB-FN Targeted Peptide–Drug Conjugates for Use against Prostate Cancer” (International Journal of Molecular Sciences, 2019).
# Where a SMILES comes first, the peptide text is derived from it. Bridges are numbered along the chain shown (N, C = ends). [ ]: non-standard residue; d: D form. Ahx = NCCCCCC(=O)O
# Key:
# EDB-FN = test: Confocal microscopy of FAM-tagged peptides, binding to EDB-FN; format: cell-based, human; settings: C4-2 cells, 5 μg FAM-peptide, 12 h, confocal 60×
# Method: Prostate cancer cell line (C4-2) was grown in RPMI medium containing 10% fetal bovine serum and 1% penicillin/streptomycin at the 37 °C in a 5% CO2 incubator. The culture medium was changed every 2–3 days until confluency was reached to 80%. Each cells group was treated with 5 μg of fluorescence-tagged peptides (17 and 18) for 12 h. A set of control groups was also prepared, which was not treated with peptides. Then all cells were fixed with 4% paraformaldehyde for 10 min and washed for 10 min (3 times with PBS). The cells were blocked in 1% FBS/PBS for 10 min and washed for 10 min (3 times with PBS). To target EDB-FN on the cell surface, the cells were incubated with a mouse monoclonal anti-fibronectin antibody (Abcam, Cambridge, MA, USA) (1:1000 dilution using 1% FBS/PBS) overnight at the 4 °C. The cells were washed for 10 min (3 times with PBS), and a Texas red-conjugated anti-mouse secondary antibody was used in 1% FBS/PBS (5:1000 dilution) at the room temperature for 1 h. Then cells were washed for 10 min (3 times with PBS), and at the end, nuclei were stained using DAPI and covered with coverslips. Representative images of cells were captured using a standard confocal microscope (Nikon Eclipse Ti-E, Nikon Instruments Inc., Melville, NY, USA) at 60× magnification, and the images were processed for binary contrast quantification.
# C4-2 = test: MTS cell viability assay, C4-2 without TGF-β; format: cell-based, human; settings: 5 µM, after 72 h, triplicate
# Description: (§1) Human epithelial prostate cell line (RWPE-1, ATCC No. CRL-11610), human prostate cancer cell line (Human prostate carcinoma DU-145, ATCC No. HTB-81), human adenocarcinoma PC3, ATCC No. CRL-1435), androgen-sensitive human prostate adenocarcinoma cells (LNCaP, ATCC No. CRL-1740), and castration-resistant LNCaP-derived C4-2 (ATCC No. CRL-1595) were purchased from American Type Culture Collection (ATCC), Manassas, VA, USA. All the media, serum, and antibiotics were bought from American Type Culture Collection (ATCC) (Manassas, VA, USA) and Sigma life-science (St. Louis, MO, USA). Keratinocytes SFM (1×) with EGF + BPE was bought from Gibco life technologies (Thermo Fisher Scientific), Gaithersburg, MD, USA. CellTiter 96 was bought from Promega, Madison, WI, USA. Dithiothreitol (DTT) was bought from Thermo Fisher scientific, Carlsbad, CA, USA, and TGF-β was bought from Abcam, Boston, MA, USA.
# (§2) Cell-proliferation assay using MTS reagent was conducted against five cell lines (RWPE-1, PC3, DU-145, LNCaP, and, C4-2). Cells were seeded into 96-well plates (5 × 10^3 cells for all the cells) and incubated with 100 µL of complete medium (RPMI-1640 for RWPE-1, DU-145, LNCaP, and C4-2; DMEM for PC3) overnight at 37 °C with 5% CO2. Various concentrations (0, 0.06, 0.6, 6, 60, 600 μM) of the peptide solution (20 μL) were added to cells to yield the final concentrations of peptide (0, 0.01, 0.1, 1, 10, 100 μM). The cells were kept in an incubator (37 °C, 5% CO2) for 24, 48, or 72 h accordingly for different treatment time responses. […] The absorbance was obtained at 490 nm using SpectraMax M2 microplate reader to detect the formazan product. […] The percentage of cell viability was calculated by [(OD value of cells treated with the test mixture of compounds) − (OD value of culture medium)] / [(OD value of control cells) − (OD value of culture medium)] × 100%. […] Cell viability was determined by measuring the absorbance at 490 nm using SpectraMax M2 microplate spectrophotometer, as mentioned above.
# DU-145 = test: MTS cell viability assay, DU-145; format: cell-based, human; settings: 5 µM, after 72 h, triplicate
# Description: as §1, with “Dithiothreitol (DTT) was bought from Thermo Fisher scientific, Carlsbad, CA, USA, and TGF-β was bought from Abcam, Boston, MA, USA.” left out
# (§3) Cell-proliferation assay using MTS reagent was conducted against five cell lines (RWPE-1, PC3, DU-145, LNCaP, and, C4-2). […] The absorbance was obtained at 490 nm using SpectraMax M2 microplate reader to detect the formazan product. […] The percentage of cell viability was calculated by [(OD value of cells treated with the test mixture of compounds) − (OD value of culture medium)] / [(OD value of control cells) − (OD value of culture medium)] × 100%. […] Cell viability was determined by measuring the absorbance at 490 nm using SpectraMax M2 microplate spectrophotometer, as mentioned above.
# [1] = tested on: RWPE-1 normal human prostate epithelial cells; test: MTS cell viability assay, RWPE-1; format: cell-based; settings: 5 µM, after 72 h, triplicate
# Description: as §1, with “Dithiothreitol (DTT) was bought from Thermo Fisher scientific, Carlsbad, CA, USA, and TGF-β was bought from Abcam, Boston, MA, USA.” left out
# as §3
# LNCaP = test: MTS cell viability assay, LNCaP; format: cell-based, human; settings: 5 µM, after 72 h, triplicate
# Description: as §1, with “Dithiothreitol (DTT) was bought from Thermo Fisher scientific, Carlsbad, CA, USA, and TGF-β was bought from Abcam, Boston, MA, USA.” left out
# as §3
# PC3 = test: MTS cell viability assay, PC3; format: cell-based, human; settings: 5 µM, after 72 h, MTS, triplicate
# Description: as §1, §2
compound,measurement,setting,value
FAM-GFLG-C6-[KTVRTSADE] (sidechain bridge or staple) [compound 18],increase in the peptide-stained area compared to peptide 17 (binary contrast quantification),EDB-FN,48%
CC(C)C[C@H](NC(=O)[C@H](Cc1ccccc1)NC(=O)CNC(=O)[C@@H](N)CS)C(=O)NCC(=O)NCCCCCC(=O)N[C@H]1CCCCNC(=O)CC[C@@H](C(N)=O)NC(=O)[C@H](CC(=O)O)NC(=O)[C@H](C)NC(=O)[C@H](CO)NC(=O)[C@H]([C@@H](C)O)NC(=O)[C@H](CCCNC(=N)N)NC(=O)[C@H](C(C)C)NC(=O)[C@H]([C@@H](C)O)NC1=O [compound 9] (H-CGFLG[Ahx]KTVRTSADE-NH2; lactam 7-15),cytotoxicity,C4-2,did not show any significant cytotoxicity
same,cytotoxicity,DU-145,did not show any significant cytotoxicity
same,cytotoxicity,[1],did not show any significant cytotoxicity
same,cytotoxicity,LNCaP,did not show any significant cytotoxicity
same,cytotoxicity,PC3,did not show any significant cytotoxicity
